The source of these data is patent US4315938A, “4-Phenyl-4,5,6,7-tetrahydro-pyrrolo [2,3-c] pyridines and salts thereof” (Boehringer Ingelheim Gmbh, priority 1979, dated 1982).

In test [1] the test system is hypothermic effect caused by reserpine. Put plainly: Reserpine antagonism (elimination of the hypothermic effect caused by reserpine). Type of test: in vivo. As to conditions: Mus musculus, mice, oral, 17 h after 2 mg/kg i.p. reserpine. How it is done: A further test for determining anti-depressive activity is based on reserpine-antagonism, that is, the elimination of the hypothermic effect caused by reserpine. The test is carried out in mice, 5 animals being used per dosage test. Seventeen hours after i.p. administration of 2 mg/kg of reserpine, the body temperature is measured peripherally while at a room temperature of 19° C. Afterwards, the test substance is administered orally, and the body temperature is measured after 1, 3, 5 and 7 hours. For each measured period a mean effective dose (ED50) is determined. This is the dosage at which the body temperature of the animals treated with reserpine approaches the normal temperature of untreated controls by 50%.

In test [2] the test system is uptake of serotonin by the neurons (synaptosomes). Put plainly: Inhibition of serotonin uptake by synaptosomes of homogenized cerebrum. The format is biochemical. As to conditions: rat cerebrum synaptosomes, 10 minutes at 37° C.; read-out: Serotonin inhibition IC 50. The protocol:
(§1) It is now believed that various forms of depression cause a deficiency of certain physiologically important amines, particularly noradrenaline and serotonin, in certain parts of the brain, and that the amount of such amines may be increased by inhibiting their uptake by neurons.
(§2) The test is performed on the homogenized, isolated cerebrum of the rat. A suspension of synaptosomes thus obtained is incubated with […] noradrenaline and/or serotonin and various concentrations of a solution of the test substance in water for 10 minutes at 37° C. When the incubation is finished, the medium is separated by filtering, and the radioactivity of the suspension of synaptosomes is measured.
(§3) A control test in the absence of the test substance is simultaneously carried out in order to determine the quantity of radioactive amines taken up. The quantity of the test substance in mols which is required to inhibit 50% of the uptake is designated the IC 50.

The test system of test [3] is uptake of noradrenaline by the neurons (synaptosomes). Put plainly: Inhibition of noradrenaline uptake by synaptosomes of homogenized cerebrum. The format is biochemical. The following applies: rat cerebrum synaptosomes, 10 minutes at 37° C.; read-out: Noradrenaline inhibition IC 50. The protocol: as §1, §2, §3
Setting [4] is: 1 hour, read-out: Reserpine antagonism after 1 hour (ED50).
Setting [5] is: 3 hours, read-out: Reserpine antagonism after 3 hours (ED50).
The mark [6] stands for this setting: 5 hours, read-out: Reserpine antagonism after 5 hours (ED50).
Setting [7] is: 7 hours, read-out: Reserpine antagonism after 7 hours (ED50).

Read-outs that look alike come from different tables or passages of the source.

What is called ED50 is the midpoint of the dose-response relation. Regarding `CN1Cc2c(cc(CN3CCOCC3)n2C)C(c2ccccc2)C1` (stereo not drawn) [1,6-Dimethyl-2-morpholinomethyl-4-phenyl-4,5,6,7-tetrahydropyrrolo[2,3-c]pyridine], the ED50 in test [1] (setting [4]) is more than 40 mg/kg; in test [1] (setting [5]) it was 16 mg/kg; in test [1] (setting [6]), 10 mg/kg; in test [1] (setting [7]), less than 40 mg/kg. The values for the IC50 in test [2] and in test [3] were 1600 nM and 6600 nM, respectively.

In the case of `CN1Cc2c(ccn2C)C(c2ccc(Br)cc2)C1` (stereo not drawn) [1,6-Dimethyl-4-(p-bromophenyl)-4,5,6,7-tetrahydro-pyrrolo[2,3-c]pyridine], the ED50 was found to be 20 mg/kg in test [1] (setting [4]), 6 mg/kg in test [1] (setting [5]), 40 mg/kg in test [1] (setting [6]) and 40 mg/kg in test [1] (setting [7]). Besides, the IC50 in test [2] was determined as 90 nM; in test [3], 1250 nM.

Consider `CN(CCO)Cc1cc2c(n1C)CN(C)CC2c1ccc(Br)cc1` (stereo not drawn) [1,6-dimethyl-2-N-methyl-N-β-hydroxyethyl-aminomethyl-4-(p-bromophenyl)-4,5,6,7-tetrahydro-pyrrolo[2,3-c]-pyridine dimaleate], for which the ED50 in test [1] (setting [4]) was 10 mg/kg; in test [1] (setting [5]) it was less than 10 mg/kg; in test [1] (setting [6]) it was 13 mg/kg; in test [1] (setting [7]) it was 10 mg/kg. The values for the IC50 in test [2] and in test [3] were 380 nM and 1300 nM, respectively.

For the molecule `CN1Cc2c(cc(Br)n2C)C(c2ccc(Br)cc2)C1` (stereo not drawn) [1,6-dimethyl-2-bromo-4-(p-bromophenyl)-4,5,6,7-tetrahydro-pyrrolo[2,3-c]-pyridine], the 50% effective dose (ED50) was more than 40 mg/kg in test [1] (setting [4]), 14 mg/kg in test [1] (setting [5]), less than 10 mg/kg in test [1] (setting [6]) and 10 mg/kg in test [1] (setting [7]). Further, the IC50 in test [2] came out at 440 nM; in test [3] it was 1800 nM.

Take `CN1Cc2c(cc(CN3CCCCCC3)n2C)C(c2ccc(Br)cc2)C1` (stereo not drawn) [1,6-dimethyl-2-hexahydro-azepine-1-yl-methyl-4-(p-bromophenyl)-4,5,6,7-tetrahydro-pyrrolo[2,3-c]-pyridine dimaleate]: the ED50 in test [1] (setting [4]) is less than 10 mg/kg; in test [1] (setting [5]), less than 10 mg/kg; in test [1] (setting [6]) it was 20 mg/kg; in test [1] (setting [7]), more than 40 mg/kg.

`CN1Cc2c(cc(CN3CCCCC3)n2C)C(c2ccc(Br)cc2)C1` (stereo not drawn) [1,6-dimethyl-2-piperidino-methyl-4-(p-bromophenyl)-4,5,6,7-tetrahydro-pyrrolo-[2,3-c]pyridine dimaleate]: the ED50 was more than 40 mg/kg in test [1] (setting [4]), 40 mg/kg in test [1] (setting [5]), 40 mg/kg in test [1] (setting [6]) and more than 40 mg/kg in test [1] (setting [7]).

With `CN1Cc2c(cc(CN3CCCC3)n2C)C(c2ccc(Br)cc2)C1` (stereo not drawn) [1,6-dimethyl-2-pyrrolidino-methyl-4-(p-bromophenyl)-4,5,6,7-tetrahydro-pyrrolo-[2,3-c]pyridine dimaleate], the ED50 was more than 40 mg/kg in test [1] (setting [4]), less than 10 mg/kg in test [1] (setting [5]), 10 mg/kg in test [1] (setting [6]) and less than 10 mg/kg in test [1] (setting [7]).

As for `CN1Cc2c(ccn2C)C(c2ccc(Cl)cc2)C1.Cl` (stereo not drawn) [1,6-dimethyl-4-(p-chlorophenyl)-4,5,6,7-tetrahydro-pyrrolo-[2,3-c]pyridine hydrochloride], the ED50 in test [1] (setting [4]), in test [1] (setting [5]), in test [1] (setting [6]) and in test [1] (setting [7]) was less than 10 mg/kg throughout. Also, the results for the IC50 in test [2] and in test [3] were 40 nM and 1500 nM, respectively.

`CN1Cc2c(ccn2C)C(c2ccc(F)cc2)C1.Cl` (stereo not drawn) [1,6-dimethyl-4-(p-fluorophenyl)-4,5,6,7-tetrahydro-pyrrolo-[2,3-c]pyridine hydrochloride]: the ED50 in test [1] (setting [4]), in test [1] (setting [5]), in test [1] (setting [6]) and in test [1] (setting [7]) was less than 10 mg/kg throughout. The figures for the IC50 in test [2] and in test [3] were 180 nM and 6700 nM, respectively.

Take `Cc1ccc(C2CN(C)Cc3c2ccn3C)cc1.Cl` (stereo not drawn) [1,6-dimethyl-4-(p-tolyl)-4,5,6,7-tetrahydro-pyrrolo-[2,3-c]pyridine hydrochloride]: the ED50 is more than 40 mg/kg in test [1] (setting [4]), less than 10 mg/kg in test [1] (setting [5]), 16 mg/kg in test [1] (setting [6]) and less than 10 mg/kg in test [1] (setting [7]). Further, the IC50 stood at 40 nM in test [2] and 4900 nM in test [3].

For `Cn1ccc2c1CNCC2c1ccc(Br)cc1.O=C(O)/C=C\C(=O)O` (stereo not drawn) [1-methyl-4-(p-bromophenyl)-4,5,6,7-tetrahydro-pyrrolo-[2,3-c]pyridine maleate], the 50% effective dose (ED50) in test [1] (setting [4]) is 36 mg/kg; in test [1] (setting [5]), 10 mg/kg; in test [1] (setting [6]) it was 30 mg/kg; in test [1] (setting [7]) it was 40 mg/kg. Moreover, the values for the IC50 in test [2] and in test [3] were 530 nM and 6900 nM, respectively.

As to `CCN1Cc2c(ccn2C)C(c2ccc(C)cc2)C1.Cl` (stereo not drawn) [1-methyl-4-(p-tolyl)-6-ethyl-4,5,6,7-tetrahydro-pyrrolo-[2,3-c]pyridine hydrochloride], the ED50 is more than 40 mg/kg in test [1] (setting [4]), less than 10 mg/kg in test [1] (setting [5]), 10 mg/kg in test [1] (setting [6]) and more than 40 mg/kg in test [1] (setting [7]). The IC50 in test [2] is 20 nM; in test [3] it was 600 nM.
